Measurements reported in ChEMBL document CHEMBL5226325, “Optimization of a Screening Hit toward M2912, an Oral Tankyrase Inhibitor with Antitumor Activity in Colorectal Cancer Models” (J Med Chem, 2021).
pEC50, pIC50: −log10 of the molar value. Active and inactive are the calls of the source. No cut-off for these calls is given here.

Tests used:
[1] = Modulation of Wnt/beta-catenin signaling pathway in human DLD-1 cells assessed as induction of AXIN2 accumulation incubated for 24 hrs by ELISA; assay type: cell-based; conditions: DLD-1, 24 h
[2] = molecular target: Poly [ADP-ribose] polymerase 1 (Homo sapiens, UniProt P09874); experiment: Inhibition of N-terminal GST-tagged human recombinant PARP1 (2 to 1014 residues) expressed in Sf9 insect cells by chemiluminescence assay
[3] = molecular target: Poly [ADP-ribose] polymerase 2 (Homo sapiens, UniProt Q9UGN5); experiment: Inhibition of N-terminal GST-tagged human recombinant PARP2 (2 to 583 residues) expressed in baculovirus infected Sf9 insect cells by chemiluminescence assay
Chain of Poly [ADP-ribose] polymerase 2 (Q9UGN5 whole entry, the tested form may be a part): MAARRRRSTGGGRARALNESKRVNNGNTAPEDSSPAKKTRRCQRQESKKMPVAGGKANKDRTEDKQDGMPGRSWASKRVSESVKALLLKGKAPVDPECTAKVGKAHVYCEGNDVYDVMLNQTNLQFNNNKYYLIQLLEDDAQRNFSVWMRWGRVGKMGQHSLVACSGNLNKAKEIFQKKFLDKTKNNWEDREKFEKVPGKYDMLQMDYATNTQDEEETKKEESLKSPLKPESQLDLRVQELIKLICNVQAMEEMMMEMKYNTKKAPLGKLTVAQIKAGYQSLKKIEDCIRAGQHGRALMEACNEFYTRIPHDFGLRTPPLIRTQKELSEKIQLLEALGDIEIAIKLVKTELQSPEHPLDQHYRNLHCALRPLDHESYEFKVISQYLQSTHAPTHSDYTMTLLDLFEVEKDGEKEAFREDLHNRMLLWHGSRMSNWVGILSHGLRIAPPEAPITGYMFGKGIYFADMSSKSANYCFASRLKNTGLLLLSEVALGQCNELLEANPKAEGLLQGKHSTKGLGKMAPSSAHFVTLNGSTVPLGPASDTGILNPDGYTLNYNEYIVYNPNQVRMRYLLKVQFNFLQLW

[4] = molecular target: Protein mono-ADP-ribosyltransferase PARP3 (Homo sapiens, UniProt Q9Y6F1); experiment: Inhibition of N-terminal GST-fused human recombinant PARP3 (2 to 540 residues) expressed in Sf9 insect cells by chemiluminescence assay
[5] = molecular target: Protein mono-ADP-ribosyltransferase TIPARP (Homo sapiens, UniProt Q7Z3E1); experiment: Inhibition of N-terminal FLAG-tagged human recombinant PARP7 (400 to 657 residues) expressed in Sf9 insect cells by chemiluminescence assay
[6] = molecular target: Protein mono-ADP-ribosyltransferase PARP8 (Homo sapiens, UniProt Q8N3A8); experiment: Inhibition of human PARP8 by chemiluminescence assay
Chain of Protein mono-ADP-ribosyltransferase PARP8 (Q8N3A8 whole entry): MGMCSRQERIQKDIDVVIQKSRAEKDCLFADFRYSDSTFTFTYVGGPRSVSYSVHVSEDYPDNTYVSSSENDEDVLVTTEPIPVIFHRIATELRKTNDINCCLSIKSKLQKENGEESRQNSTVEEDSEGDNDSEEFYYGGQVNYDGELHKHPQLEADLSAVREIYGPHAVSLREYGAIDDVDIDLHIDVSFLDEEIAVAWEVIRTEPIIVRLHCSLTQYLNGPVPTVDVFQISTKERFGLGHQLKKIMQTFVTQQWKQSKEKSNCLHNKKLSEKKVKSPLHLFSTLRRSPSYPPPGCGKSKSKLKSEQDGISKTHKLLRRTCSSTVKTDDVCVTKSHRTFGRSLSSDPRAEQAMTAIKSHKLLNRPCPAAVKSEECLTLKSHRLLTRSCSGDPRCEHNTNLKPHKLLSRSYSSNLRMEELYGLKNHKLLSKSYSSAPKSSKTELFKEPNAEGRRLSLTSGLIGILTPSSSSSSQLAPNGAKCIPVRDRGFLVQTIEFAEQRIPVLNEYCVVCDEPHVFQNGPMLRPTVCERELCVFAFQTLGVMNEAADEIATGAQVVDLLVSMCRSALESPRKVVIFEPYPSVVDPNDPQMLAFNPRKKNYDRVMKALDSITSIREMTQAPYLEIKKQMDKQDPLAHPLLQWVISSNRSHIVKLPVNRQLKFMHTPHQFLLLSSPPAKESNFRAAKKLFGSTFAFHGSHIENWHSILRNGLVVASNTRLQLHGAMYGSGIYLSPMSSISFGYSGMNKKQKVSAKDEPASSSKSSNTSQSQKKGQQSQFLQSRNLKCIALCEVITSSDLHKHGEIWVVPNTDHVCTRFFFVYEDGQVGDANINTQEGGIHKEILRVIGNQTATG

[7] = molecular target: Protein mono-ADP-ribosyltransferase PARP10 (Homo sapiens, UniProt Q53GL7); experiment: Inhibition of human PARP10 by chemiluminescence assay
Chain of Protein mono-ADP-ribosyltransferase PARP10 (Q53GL7 whole entry, the tested form may be a part): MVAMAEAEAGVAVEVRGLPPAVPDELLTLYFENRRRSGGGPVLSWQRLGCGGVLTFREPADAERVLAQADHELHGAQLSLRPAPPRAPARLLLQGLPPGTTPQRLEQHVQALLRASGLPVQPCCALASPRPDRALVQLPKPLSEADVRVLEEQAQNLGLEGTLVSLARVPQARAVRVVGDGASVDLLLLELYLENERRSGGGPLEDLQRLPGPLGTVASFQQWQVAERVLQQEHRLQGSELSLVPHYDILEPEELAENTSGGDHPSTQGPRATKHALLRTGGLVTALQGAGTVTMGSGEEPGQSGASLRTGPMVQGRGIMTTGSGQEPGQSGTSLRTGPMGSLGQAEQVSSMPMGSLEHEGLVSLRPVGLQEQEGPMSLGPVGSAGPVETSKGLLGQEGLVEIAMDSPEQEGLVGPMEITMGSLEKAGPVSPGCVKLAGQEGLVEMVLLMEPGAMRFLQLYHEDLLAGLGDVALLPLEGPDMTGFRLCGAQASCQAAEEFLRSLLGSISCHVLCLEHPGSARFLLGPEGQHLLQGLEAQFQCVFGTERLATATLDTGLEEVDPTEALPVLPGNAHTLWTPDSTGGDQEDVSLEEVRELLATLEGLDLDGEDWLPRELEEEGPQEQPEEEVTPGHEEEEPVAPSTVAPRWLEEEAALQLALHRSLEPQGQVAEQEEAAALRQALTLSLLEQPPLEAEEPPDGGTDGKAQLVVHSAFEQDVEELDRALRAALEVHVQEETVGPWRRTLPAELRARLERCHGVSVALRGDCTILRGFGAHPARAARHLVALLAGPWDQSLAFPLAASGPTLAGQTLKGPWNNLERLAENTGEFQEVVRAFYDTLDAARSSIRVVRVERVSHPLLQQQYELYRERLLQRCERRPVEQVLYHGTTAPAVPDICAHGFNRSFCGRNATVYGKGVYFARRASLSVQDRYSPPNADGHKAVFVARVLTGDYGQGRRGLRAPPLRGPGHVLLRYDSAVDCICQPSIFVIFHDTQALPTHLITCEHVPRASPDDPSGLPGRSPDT

[8] = molecular target: Protein mono-ADP-ribosyltransferase PARP14 (Homo sapiens, UniProt Q460N5); experiment: Inhibition of N-terminal GST/6xHis/TEV-tagged human recombinant PARP14 (1470 to 1801 residues) expressed in Sf9 insect cells by chemiluminescence assay
[9] = molecular target: Protein mono-ADP-ribosyltransferase PARP15 (Homo sapiens, UniProt Q460N3); experiment: Inhibition of N-terminal GST-tagged human recombinant PARP15 (221 to 444 residues) expressed in Escherichia coli by chemiluminescence assay
HT55 = experiment: Cytotoxicity against human HT55 cells assessed as reduction in cell growth incubated for 14 days by resazurin dye based assay; assay type: functional; conditions: time 14.0 day
COLO 320 = experiment: Cytotoxicity against human COLO 320 cells assessed as reduction in cell growth incubated for 14 days by resazurin dye based assay; assay type: functional; conditions: time 14.0 day
SW480 = experiment: Cytotoxicity against human SW480 cells assessed as reduction in cell growth at 0.01 to 10 uM incubated for 14 days by resazurin dye based assay; assay type: functional; conditions: dose 0.01-10 µM, time 14.0 day
DLD-1 = experiment: Cytotoxicity against human DLD-1 cells assessed as reduction in cell growth at 0.01 to 10 uM incubated for 14 days by resazurin dye based assay; assay type: functional; conditions: dose 0.01-10 µM, time 14.0 day
SW-620 = experiment: Cytotoxicity against human SW620 cells assessed as reduction in cell growth at 0.01 to 10 uM incubated for 14 days by resazurin dye based assay; assay type: functional; conditions: dose 0.01-10 µM, time 14.0 day
[10] = molecular target: Sodium-dependent dopamine transporter (Homo sapiens, UniProt Q01959); experiment: Inhibition of dopamine transporter (unknown origin); assay type: toxicity
Chain of Sodium-dependent dopamine transporter (Q01959 whole entry): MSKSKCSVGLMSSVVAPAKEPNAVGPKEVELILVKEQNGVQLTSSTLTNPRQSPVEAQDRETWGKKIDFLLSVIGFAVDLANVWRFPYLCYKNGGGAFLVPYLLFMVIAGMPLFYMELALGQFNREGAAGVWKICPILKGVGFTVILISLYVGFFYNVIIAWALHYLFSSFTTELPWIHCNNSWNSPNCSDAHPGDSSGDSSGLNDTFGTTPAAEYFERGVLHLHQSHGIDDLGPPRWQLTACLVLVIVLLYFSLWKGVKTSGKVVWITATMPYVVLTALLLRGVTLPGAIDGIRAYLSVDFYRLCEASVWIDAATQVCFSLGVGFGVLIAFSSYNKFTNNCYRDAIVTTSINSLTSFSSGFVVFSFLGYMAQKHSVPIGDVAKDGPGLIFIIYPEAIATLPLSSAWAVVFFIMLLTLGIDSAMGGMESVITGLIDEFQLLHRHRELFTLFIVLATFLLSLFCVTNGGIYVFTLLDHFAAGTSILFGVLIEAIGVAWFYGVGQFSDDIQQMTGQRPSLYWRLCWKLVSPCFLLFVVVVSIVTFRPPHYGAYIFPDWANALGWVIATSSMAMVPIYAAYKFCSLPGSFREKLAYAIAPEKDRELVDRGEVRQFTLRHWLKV

Adenosine receptor A3 = Adenosine receptor A3 (Homo sapiens, UniProt P0DMS8); experiment: Inhibition of A3 adenosine receptor (unknown origin); assay type: toxicity
Chain of Adenosine receptor A3 (P0DMS8 whole entry): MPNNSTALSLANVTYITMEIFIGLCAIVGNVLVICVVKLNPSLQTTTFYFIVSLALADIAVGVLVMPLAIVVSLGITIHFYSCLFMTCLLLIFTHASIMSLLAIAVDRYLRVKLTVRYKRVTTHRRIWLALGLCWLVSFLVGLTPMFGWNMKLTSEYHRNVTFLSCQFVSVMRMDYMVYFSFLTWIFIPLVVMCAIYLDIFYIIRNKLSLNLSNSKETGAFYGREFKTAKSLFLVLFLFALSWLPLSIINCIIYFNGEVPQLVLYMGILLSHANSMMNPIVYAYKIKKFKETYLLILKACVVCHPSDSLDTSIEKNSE

CYP450 = CYP450 (Homo sapiens, UniProt P04798+P05177+P05181+P08684+P10632+P10635+P11509+P11712+P13584+P20813+P20815+P20853+P24462+P24903+P33260+P33261+P51589+P78329+P98187+Q02928+Q08477+Q16678+Q16696+Q5TCH4+Q6VVX0+Q7Z449+Q8TAV3+Q96SQ9+Q9HB55); experiment: Inhibition of CYP450 (unknown origin); assay type: ADME, protein assay
[11] = Unbound fraction in rat plasma; assay type: ADME, cell-free
[12] = Unbound fraction in monkey plasma; assay type: ADME, cell-free, Macaca mulatta; conditions: rhesus monkey
[13] = Volume of distribution at steady state in rat; assay type: ADME; conditions: in vivo, read-out: Vdss
[14] = Volume of distribution at steady state in dog; assay type: ADME, Canis lupus familiaris; conditions: in vivo, read-out: Vdss
[15] = Volume of distribution at steady state in monkey; assay type: ADME, Macaca mulatta; conditions: rhesus monkey, in vivo; read-out: Vdss
[16] = Hepatic blood flow in mouse; assay type: ADME, organism-based
[17] = Hepatic blood flow in rat; assay type: ADME
[18] = Hepatic blood flow in monkey; assay type: ADME, Macaca mulatta; conditions: rhesus monkey
[19] = Hepatic blood flow in human; assay type: ADME
[20] = Half life in mouse; assay type: ADME, organism-based; conditions: in vivo
[21] = Half life in rat; assay type: ADME; conditions: in vivo
[22] = Half life in dog; assay type: ADME, Canis lupus familiaris; conditions: in vivo
[23] = Half life in human; assay type: ADME
[24] = Oral bioavailability in mouse; assay type: ADME, organism-based; conditions: in vivo
[25] = Oral bioavailability in dog; assay type: ADME, organism-based, Canis lupus familiaris; conditions: in vivo
[26] = In vivo inhibition of Wnt pathway in Hsd athymic nude mouse xenografted with human DLD1 cells assessed as increase in axin2 protein level in tumor at 10 to 30 mg/kg, po administered as single dose and measured after 2 to 8 hrs; assay type: functional, organism-based; conditions: DLD-1, dose 10-30 mg/kg, time 2-8 hrs
[27] = In vivo inhibition of Wnt pathway in Hsd athymic nude mouse xenografted with human DLD1 cells assessed as increase in tankyrase protein level in tumor at 10 to 30 mg/kg, po administered as single dose and measured after 18 hrs; assay type: functional, organism-based; conditions: DLD-1, dose 10-30 mg/kg
[28] = In vivo inhibition of Wnt pathway in Hsd athymic nude mouse xenografted with human DLD1 cells assessed as reduction in beta-catenin level in tumor at 10 to 30 mg/kg, po administered as single dose and measured after 8 hrs; assay type: functional, organism-based; conditions: DLD-1, dose 10-30 mg/kg
[29] = Toxicity in CD-1 nude mouse xenografted with human HT55 cells assessed as drug tolerance at 15 mg/kg, po administered twice daily via gavage for 20 days; assay type: organism-based; conditions: in vivo, 480 h, time 20 day
[30] = Toxicity in mouse assessed as histopathological changes in gastrointestinal tract at 50 mg/kg, po administered twice daily via gavage; assay type: organism-based; conditions: in vivo
[31] = molecular target: Poly [ADP-ribose] polymerase tankyrase-1 (Homo sapiens) (UniProt O95271); experiment: Inhibition of tankyrase-mediated auto-PARsylation in human DLD-1 cells assessed as increase in tankyrase accumulation incubated for 24 hrs; assay type: cell-based
Chain of Poly [ADP-ribose] polymerase tankyrase-1 (Homo sapiens) (O95271 whole entry): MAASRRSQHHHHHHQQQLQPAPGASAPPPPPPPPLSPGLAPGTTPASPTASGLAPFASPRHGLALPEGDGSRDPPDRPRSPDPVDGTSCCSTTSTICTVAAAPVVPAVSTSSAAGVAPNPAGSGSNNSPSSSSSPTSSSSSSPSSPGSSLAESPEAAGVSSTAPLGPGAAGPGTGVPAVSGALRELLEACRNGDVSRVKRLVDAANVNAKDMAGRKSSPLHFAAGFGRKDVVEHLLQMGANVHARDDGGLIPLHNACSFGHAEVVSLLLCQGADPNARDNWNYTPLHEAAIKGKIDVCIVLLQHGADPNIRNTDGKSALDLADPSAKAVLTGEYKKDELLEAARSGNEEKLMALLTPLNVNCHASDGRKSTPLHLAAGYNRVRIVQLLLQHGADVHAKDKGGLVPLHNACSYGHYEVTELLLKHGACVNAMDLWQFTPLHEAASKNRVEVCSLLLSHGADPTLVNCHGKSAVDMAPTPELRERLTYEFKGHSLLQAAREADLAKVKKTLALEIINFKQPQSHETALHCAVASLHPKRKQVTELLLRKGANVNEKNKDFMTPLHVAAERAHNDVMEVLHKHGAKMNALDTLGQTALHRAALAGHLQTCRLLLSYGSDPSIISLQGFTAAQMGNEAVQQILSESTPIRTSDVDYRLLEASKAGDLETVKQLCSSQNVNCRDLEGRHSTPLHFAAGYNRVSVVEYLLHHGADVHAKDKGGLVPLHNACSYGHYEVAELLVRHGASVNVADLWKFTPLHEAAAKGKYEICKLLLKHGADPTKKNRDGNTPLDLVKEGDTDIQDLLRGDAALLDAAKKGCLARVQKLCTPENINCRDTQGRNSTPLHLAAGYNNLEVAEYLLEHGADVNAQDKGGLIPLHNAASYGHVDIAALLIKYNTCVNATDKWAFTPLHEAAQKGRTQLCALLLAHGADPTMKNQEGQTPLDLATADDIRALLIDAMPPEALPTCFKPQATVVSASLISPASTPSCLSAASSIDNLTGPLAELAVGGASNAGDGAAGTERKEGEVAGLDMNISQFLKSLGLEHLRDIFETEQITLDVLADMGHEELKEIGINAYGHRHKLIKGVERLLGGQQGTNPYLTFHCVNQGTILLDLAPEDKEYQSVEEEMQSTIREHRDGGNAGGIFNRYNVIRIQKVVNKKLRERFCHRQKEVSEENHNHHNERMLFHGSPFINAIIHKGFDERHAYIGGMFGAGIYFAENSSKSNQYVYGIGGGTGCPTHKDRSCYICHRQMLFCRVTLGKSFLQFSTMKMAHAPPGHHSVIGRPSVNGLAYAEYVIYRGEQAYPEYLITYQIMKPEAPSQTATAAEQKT

`Cc1ccc2c(=O)[nH]c(-c3ccc(C(C)(C)O)cc3)cn12` showed a pEC50 [1] of 7.80, a pIC50 [2] of 6.85 and a pIC50 [3] of 6.70. For the same compound, the pIC50 [4] was 6.96, the pIC50 [5] was 6.48 and the pIC50 [6] was 5.89. It also gave a pIC50 [7] of 5.54, a pIC50 [8] of under 5.00 and a pIC50 [9] of under 5.00. For the same compound, the Activity (HT55) was “Dose-Dependent Effect”, the Activity (COLO 320) was “Dose-Dependent Effect” and the Activity (SW480) was “inactive”. The Activity (DLD-1) was “inactive”, the Activity (SW-620) was “inactive” and the pIC50 [10] was 4.72. It also gave a pIC50 (Adenosine receptor A3) of 5.00, a pIC50 (CYP450) of under 4.30 and a fraction unbound [11] of 0.13. It also gave a fraction unbound [12] of 0.21, a Vd [13] of 0.91 L/kg and a Vd [14] of 2.17 L/kg. For the same compound, the Vd [15] was 3.15 L/kg, the QH [16] was 50% and the QH [17] was 56%. The QH [18] was 99%, the QH [19] was 17% and the half-life [20] was 58.6 min. It also gave a half-life [21] of 20.4 min, a half-life [22] of 35.6 min and a half-life [23] of 414 min. The bioavailability [24] was 77%, the bioavailability [25] was 37% and the inhibition [26] was “Active”. For the same compound, the inhibition [27] was “inactive”, the inhibition [28] was “Active” and the Activity [29] was “Non-Toxic”. For the same compound, the Activity [30] was “Toxic” and the inhibition [31] was “Active”.
